According to patent publication US20250277785A1, “MICROFLUIDIC DEVICES FOR EVALUATING FIBROSIS IN MATERIAL IMPLANTATION AND CANCER” (THE UNITED STATES OF AMERICA AS REPRESENTED BY THE …, priority 2022, published 2025):

Legend:
RAW264.7 cells = experiment: F-actin visualization of macrophage morphology; assay type: cell-based, mouse; settings: increasing concentrations of LPS
Description: (§1) L929 mouse fibroblasts and RAW264.7 mouse macrophages were fluorescently labelled with red and green […]® (Thermo Fisher Scientific) dyes respectively. Extensive studies were conducted to optimize cell seeding density, culture times, and biomaterial implantation. Cells were co-cultured two-dimensionally or within microfluidic devices described in Example 1, after which cancer spheroids or alginate-based biomaterials were implanted within the two-dimensional cultures and within the microfluidic devices. Immunostaining, fluorescence microscopy, Griess assays, and histological analysis were used to evaluate immune cell activation and fibrosis formation in response to the spheroids and implants. Griess Assays were performed on media collected from cultured cells. […] Co-culture of RAW264.7 and L929 cells were visualized with […]® dyes. […] F-actin visualization for RAW264.7 cells treated with LPS was performed. […] Co-culture of L929 and RAW264.7 cells was performed in the microfluidic device. L929 cells were cultured in 3D within the Matrigel channel, while macrophages were introduced in 2D from an adjacent channel. After 24 hours of co-culture, the cells were primarily retained within their respective channels.

RAW264.7 macrophages = experiment: Griess assay of nitrite production in media of cultured macrophages; assay type: cell-based, mouse; settings: LPS stimulation of macrophages, 2D culture
Description: as §1

[1] = tested on: primary mouse skin fibroblasts; experiment: Scar-in-a-jar immunostaining, collagen deposition by fibroblasts in 2D; assay type: cell-based; settings: media containing L-ascorbic acid, FICOLL and TGF-β1
Description: (§2) Inducing collagen deposition by fibroblasts in a two-dimensional model was studied. To determine whether L929 fibroblasts would deposit collagen in response to stimuli, well plate experiments were conducted following a protocol described in Good et al., “A High Content, Phenotypic ‘Scar-In-A-Jar’ Assay for Rapid Quantification of Collagen Fibrillogenesis Using Disease-Derived Pulmonary Fibroblasts,” BMC Biomedical Engineering, 1:14, 1-10 (2019), which is incorporated by reference herein in its entirety. Immunostaining experiments were carried out on L929 cells and primary mouse skin fibroblasts exposed to media containing L-ascorbic acid, FICOLL®, and TGF-β1. […] These findings indicate the relevance of and effects of cell type and L-ascorbic acid type on in vitro extracellular matrix deposition.

L929 cells = experiment: as above; assay type: cell-based, mouse; settings: media containing L-ascorbic acid, FICOLL and TGF-β1
Description: as §2

WI-38 human lung cells = experiment: Picrosirius red staining of decellularized extracellular matrix; assay type: cell-based; settings: Permanox plastic 4-chamber slides, 250,000 cells/chamber, with vs without L-ascorbic acid
Description: One method that can be used for visualization and quantification of collagen deposition in the microfluidic device is picrosirius red staining. […] Cells were grown in chambers with or without a fibronectin coating and with or without L-asorbic acid. […] In the absence of a fibronectin coating, no visible collagen deposition remained after 14-15 minutes of decellularization. […] Cells appear to deposit collagen fibers that are retained, even in the absence of a fibronectin coating, with a short decellularization time of five minutes. […]

[2] = tested on: L929 cells and primary mouse skin fibroblasts; experiment: Scar-in-a-jar immunostaining, effect of L-ascorbic acid type; assay type: cell-based; settings: cell type not specified for this statement
Description: as §2

## lipopolysaccharide [LPS]
RAW264.7 cells
  morphological changes (F-actin visualization): Morphological changes were observed
RAW264.7 macrophages
  macrophage activation, as indicated by nitrite production: led to macrophage activation

## TGF-β1: transforming growth factor beta 1, stimulus for collagen deposition
[1]
  Collagen I deposition in response to TGF-β1 treatment: Some increases
  α-SMA expression in response to TGF-β1 treatment: Some increases
L929 cells
  Collagen I deposition in response to TGF-β1 treatment: did not have increased Collagen I deposition
  α-SMA expression: no α-SMA expression

## O=C1O[C@H]([C@@H](O)CO)C(O)=C1O [L-ascorbic acid]
WI-38 human lung cells
  collagen deposition (picrosirius red): increase in collagen deposition
[2]
  effect of the type of L-ascorbic acid on Collagen I deposition: had some effects
